Measurements taken from article PMC4222822, “Discovery and Characterization of a Potent and Selective Inhibitor of Aedes aegypti Inward Rectifier Potassium Channels” (PLoS ONE, 2014).

Legend:
[1] = tested on: mosquitoes; assay: Toxicity when applied to the cuticle (topical); assay type: in vivo; details: Piermarini, unpublished observations
[2] = tested on: mammalian Kir channels (Kir1.1, Kir2.1, Kir2.2, Kir2.3, Kir3.1/3.2, Kir4.1, Kir7.1(M125R), Kir6.2/SUR1); assay: Tl+ flux assays against a panel of mammalian Kir channels; assay type: cell-based; details: vs AeKir1 IC50 = 96.8 nM
Procedure: The plates were transferred to a Hamamatsu Functional Drug Screening System 6000 (FDSS6000; Hamamatsu, Hamamatsu (or Bridgewater, NJ), Japan) where 20 µL/well of test compounds in assay buffer (as prepared below) were added and allowed to incubate with the cells for 20 min. After the incubation period, a baseline recording was collected at 1 Hz for 10 s (excitation 470±20 nm, emission 540±30 nm) followed by a Tl^+ stimulus buffer addition (10 µL/well) and data collection for an additional 4 min. The Tl^+ stimulus buffer contains in (mM) 125 NaHCO3, 1.8 CaSO4, 1 MgSO4, 5 glucose, 12 Tl2SO4, 10 HEPES, pH 7.4. For Tl^+ flux assays on the mammalian channels Kir2.x, Kir4.1 and Kir6.2/SUR1 expressing cells, the Tl^+ stimulus buffer contained 1.8 mM Tl2SO4. Also, Tl^+ flux assays on Kir3.1/3.2/mGlu8 expressing cell, required addition of an EC80 concentration of glutamate (Sigma-Aldrich, St. Louis, MO) with the Tl^+ stimulus buffer.
The test compounds were transferred to daughter polypropylene 384-well plates (Greiner Bio-One, Monroe, NC) using an Echo555 liquid handler (Labcyte, Sunnyvale, CA), and then diluted into assay buffer to generate a 2X stock in 0.6% DMSO (0.3% final). For Tl^+ flux assays on Kir6.2/SUR1 expressing cells, test compounds were diluted in assay buffer containing diazoxide (250 µM final) to induce channel activation. […]

[3] = target: melatonin MT1 receptor (Homo sapiens, UniProt P48039); assay: Radioligand displacement assay, melatonin MT1 receptor; assay type: binding, mammalian; details: 10 µM VU625
melatonin MT1 receptor, sequence (P48039 whole entry): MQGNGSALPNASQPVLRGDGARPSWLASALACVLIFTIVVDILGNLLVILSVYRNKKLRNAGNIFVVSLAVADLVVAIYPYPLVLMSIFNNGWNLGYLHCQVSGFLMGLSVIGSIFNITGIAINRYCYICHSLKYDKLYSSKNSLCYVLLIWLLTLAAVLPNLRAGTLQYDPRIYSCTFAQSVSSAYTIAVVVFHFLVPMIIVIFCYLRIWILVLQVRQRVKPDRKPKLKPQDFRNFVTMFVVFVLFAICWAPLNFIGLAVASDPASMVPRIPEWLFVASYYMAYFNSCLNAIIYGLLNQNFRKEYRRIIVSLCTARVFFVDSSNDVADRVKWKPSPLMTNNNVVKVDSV

[4] = target: AeKir2B (Aedes aegypti, UniProt L0EQ40); assay: Two-electrode electrophysiology of Xenopus oocytes expressing AeKir2B; assay type: cell-based; details: inward current at −140 mV, 95% CI: 31.7–64.2 µM, n = 4–5 oocytes per concentration, read-out: IC50 of AeKir2B current inhibition
AeKir2B, sequence (L0EQ40 entry or part of it): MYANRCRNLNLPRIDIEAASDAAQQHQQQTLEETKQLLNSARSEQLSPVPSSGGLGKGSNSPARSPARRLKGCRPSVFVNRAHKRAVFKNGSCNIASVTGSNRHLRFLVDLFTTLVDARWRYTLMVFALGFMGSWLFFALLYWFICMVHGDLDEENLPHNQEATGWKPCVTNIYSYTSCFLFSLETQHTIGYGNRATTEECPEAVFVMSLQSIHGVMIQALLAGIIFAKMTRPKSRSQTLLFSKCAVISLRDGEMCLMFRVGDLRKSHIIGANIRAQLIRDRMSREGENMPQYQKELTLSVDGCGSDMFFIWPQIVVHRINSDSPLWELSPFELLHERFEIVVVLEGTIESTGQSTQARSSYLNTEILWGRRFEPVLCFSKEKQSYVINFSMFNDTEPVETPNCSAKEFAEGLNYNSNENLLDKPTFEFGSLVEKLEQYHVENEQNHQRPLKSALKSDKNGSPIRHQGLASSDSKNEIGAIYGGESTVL
Procedure: AeKir1 and AeKir2B channels were expressed heterologously in Xenopus laevis oocytes as described previously. In brief, defolliculated Xenopus oocytes (purchased from Ecocyte Bioscience, Austin, TX) were injected with 10 ng (0.35 ng/nL) of either AeKir1 or AeKir2B cRNA and cultured for 3–7 days in OR3 media at 18°C. Oocytes injected with 28 nl of nuclease-free H2O served as controls.
All electrophysiological experiments on Xenopus oocytes were performed at room temperature. When present, VU625 was dissolved in solution III or solution V to a final concentration of 0.1, 1, 5, 15, or 50 µM (0.05% DMSO). All solutions were delivered by gravity to a RC-3Z oocyte chamber (Warner Instruments, Hamden, CT) via polyethylene tubing at a flow rate of ∼2 ml/min. Solution changes were made with a Rheodyne Teflon 8-way Rotary valve (Model 5012, Rheodyne, Rohnert Park, CA).
Electrophysiological recordings from oocytes were conducted as described previously In brief, each oocyte was transferred to the holding chamber under superfusion with solution I and impaled with two conventional-glass microelectrodes backfilled with 3 M KCl (resistances of 0.5–1.5 MΩ) to measure membrane potential (Vm) and whole-cell membrane current (Im), respectively. […] All Vm and Im values were recorded by a Digidata 1440A Data Acquisition System (Molecular Devices) and the Clampex module of pCLAMP. […]

CCC(=O)N1c2ccc(S(=O)(=O)Nc3cccc(OC)c3)cc2CC1C (stereo not shown) [VU625, N-(3-methoxyphenyl)-2-methyl-1-propionylindoline-5-sulfonamide]
toxicity when applied to the cuticle [1]: lack of topical activity
selectivity for the AeKir1 channel over 8 mammalian Kir channels [2]: greater than 80 fold
radioligand displacement [3]: 56%
IC50 [4]: 45.1 µM
